Experimental data published in the METLIN SMRT retention time set (Domingo-Almenara et al. 2019).

Experiment: gradient 5% acetonitrile 3 min, to 50% in 2 min, to 85% in 15 min, held 3 min, 100 µL/min
Conditions: column: Zorbax Extend-C18 2.1 x 50 mm; eluents: water / acetonitrile, 0.1% formic acid
In short: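 Pure standards were run in mixtures of ~100 molecules by HPLC coupled to a quadrupole time-of-flight mass spectrometer. The column was a Zorbax Extend-C18 (2.1 × 50 mm, 1.8 μm) at 100 μL/min, with water and acetonitrile each containing 0.1% formic acid, in positive and negative ionization mode. Dead and dwell volumes were 40 μL and 900 μL. Retention time was taken from computationally picked adduct peaks, each manually inspected, with data collected over 3 months.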

| RP-LC retention time | SMILES |
| --- | --- |
| 640 s | CC(C)(C)CN(C(=O)c1ccc(F)cc1)c1ccncc1 |
| 806 s | COc1ccc(NS(=O)(=O)c2cc(-c3nnc(C(=O)N4CCCC4)o3)sc2C)cc1OC |
| 574 s | O=C(CCC[C@@H]1[C@H]2CCCN3CCC[C@@H](CN1C(=O)c1ccccc1)[C@@H]23)NC1CCS(=O)(=O)C1 (stereo partly drawn) |
| 614 s | Cc1ccc(C(=O)N2CCC3(CC2)N(C)C(=O)CS3(=O)=O)s1 |
| 746 s | COCCCNC(=O)C1(c2ccc(NC(=O)c3cccs3)cc2)CC1 |
| 673 s | O=C(Cn1cccc(-c2nc(-c3ccc(F)cc3)no2)c1=O)NCc1cccs1 |
| 653 s | COCCNC(=O)C1(C)CCC(=O)N1CCc1c[nH]c2ccccc12 (stereo not drawn) |
| 620 s | CC(Oc1ccc(-c2cnc3ccccc3n2)cc1)C(=O)N(C)Cc1ccco1 (stereo not drawn) |
| 587 s | Cc1ccnc(N2CCC(C(=O)NCCCN(C)C3CCCCC3)CC2)n1 |
| 812 s | O=c1c2nnc(SCc3ccccc3)n2ccn1-c1ccc(Br)cc1 |
| 879 s | O=C1CC(C(=O)N2CCc3ccccc3C2)CN1CCc1c[nH]c2ccc(Cl)cc12 (stereo not drawn) |
| 901 s | Cc1ccc(-n2nc(N3CCCC(C(=O)NCc4ccccc4)C3)ccc2=O)cc1Cl (stereo not drawn) |
| 652 s | COc1ccc(NC(=O)NC2CCN(C(=O)N3C[C@H]4C[C@H](C3)[C@H]3CCCC(=O)N3C4)CC2)cc1 |
| 1050 s | Cc1cccc(NC(=O)Nc2nccn(-c3ccc(Br)cc3)c2=O)c1 |
| 798 s | Cc1sc2ccn(C)c(=O)c2c1C(=O)NCc1ccccc1Cl |
| 816 s | CC(C)NC(=O)c1cc(N(C)C)nc2c(Cl)cccc12 |
| 622 s | O=C(Cc1ccc(Br)cc1)N1CCN(C(=O)c2cc(-c3ccncc3)n[nH]2)CC1 |
| 643 s | CCN(CC)C(=O)CCC1CCCN(c2cc(NC3CC3)ncn2)C1 (stereo not drawn) |
| 774 s | O=C(c1ccsc1)N1CCC(N(C(=O)Cc2ccccc2)C2CCOCC2)CC1 |
| 1270 s | Cc1cc(=O)n(Cc2cccc(Br)c2)c(Nc2ccc(F)c(F)c2)n1 |
| 990 s | Cc1nc(-c2ccc3c(c2)CCN3C(=O)Cc2ccc(F)cc2)cs1 |
| 604 s | CS(=O)(=O)N1CCCc2cc(C(=O)N3CCC(C(N)=O)CC3)ccc21 |

| RP-LC retention time | SMILES |
| --- | --- |
| 1030 s | CCC(=O)N1CCc2sc(S(=O)(=O)N3CCN(c4ccccc4C)CC3)cc2C1 |
| 642 s | Cc1cc(NC(=O)Nc2ccc3nc(N4CCN(C)CC4)cc(C)c3c2)ccc1Br |
| 898 s | Cc1ccc(Nc2nc3ccncc3n(Cc3ccccc3)c2=O)cc1Cl |
| 927 s | Cc1csc(-c2cc(S(=O)(=O)NC3CCCCC3)cn2CC(=O)N2CCCC2)n1 |
| 887 s | O=C(Nc1nnc(SCc2nnc(-c3cccc(F)c3)o2)s1)c1ccccc1 |
| 897 s | Cc1cccc(-c2noc(C3CCCN3C(=O)NC(C)C)n2)c1 (stereo not drawn) |
| 671 s | COc1ccc(-c2cc3c(=O)n(Cc4noc(CN(C)C5CCCCC5)n4)ccn3n2)cc1 |
| 988 s | Cc1cc(S(=O)(=O)N2CCc3c(c(-c4nnc(-c5ccccc5F)o4)nn3C)C2)ccc1F |
| 947 s | CCOC(=O)/C=C/c1ccc(C(=O)OCC)[nH]1 |
| 651 s | COC(=O)c1cnc(N2CCN(c3cc(Cl)ccc3C)CC2)c2ccccc12 |
| 1010 s | Cc1ccc(C(=O)N2CCCC2c2nc(-c3ccc(F)cc3F)no2)s1 (stereo not drawn) |
| 761 s | CCC(=O)N1CCc2cc(C(=O)NCc3ccc4c(c3)OCO4)ccc21 |
| 556 s | COCCN(Cc1cccs1)C(=O)CN1C[C@H]2C[C@H](C1)[C@H]1CCCC(=O)N1C2 |
| 608 s | Cc1cc(N2CCN(C(=O)c3ccccc3F)CC2)nc(N2CCOCC2)n1 |
| 830 s | COC(=O)c1cccc(Nc2c(-c3ccc(F)cc3)nc3cnccn23)c1 |
| 634 s | CCN1C(=O)CN(C(=O)CC(C)C)CC12CCOCC2 |
| 747 s | Cc1ccn2c(NC(=O)c3ccc4ccccc4c3)c(-c3ccccc3)nc2c1 |
| 740 s | CCOC1CCN(C(=O)NC2CCCCC2)CC1 |
| 794 s | CS(=O)(=O)NCc1ccc2c(c1)CCN2C(=O)c1ccc(Cl)cc1 |
| 915 s | CC(C)Cc1cc(-c2nn3c(-c4ccccc4F)nnc3s2)n[nH]1 |
| 744 s | COc1ccc(NC(=O)C2c3cc(OC)c(OC)cc3C(=O)N3CCc4ccccc4C23)cc1OC (stereo not drawn) |
| 1050 s | COc1ccc(N2CC(c3noc(-c4cccc(OC(F)(F)F)c4)n3)CC2=O)cc1 (stereo not drawn) |

| RP-LC retention time | SMILES |
| --- | --- |
| 1160 s | COc1ccc(-c2ncc3c(n2)CCN(S(=O)(=O)c2ccc4c(c2)CCC4)C3)cc1 |
| 1220 s | CCOc1ccc(NS(=O)(=O)c2c(C)sc(C)c2-c2cc(C(F)(F)F)on2)cc1 |
| 681 s | O=C(CSc1ccc(-n2cccn2)nn1)NCc1cccs1 |
| 1170 s | CCN1C(=O)C2(CCN(S(=O)(=O)c3ccc(C)c(Cl)c3)CC2)c2ccccc21 |
| 652 s | O=C(Cc1nc(-c2ccccn2)n[nH]1)Nc1ccc(F)cc1F |
| 991 s | O=C(Nc1cc(-c2cccc(F)c2)no1)C1CCCN(c2ncnc3c2nc2n3CCCCC2)C1 (stereo not drawn) |
| 705 s | Cc1cc(C)n2nc(SCC(=O)NCc3ccccc3)nc2n1 |
| 613 s | CCc1nc2cc(N3CCC(C(=O)NCCN4CCCCCC4)CC3)cnc2nc1CC |
| 731 s | Cc1ccc(NC(=O)C2CCc3nc(N4CCOCC4)ncc3C2)c(F)c1 (stereo not drawn) |
| 598 s | Cc1noc(C)c1CC(=O)NCC1Cn2cccc2C(=O)N1C (stereo not drawn) |
| 615 s | COc1ccc(-c2nn3c(N4CCN(c5ccccn5)CC4)cc(C)nc3c2C)cc1 |
| 644 s | Cc1ccc(NC(=O)c2cn3c(n2)CCCC3)c(C)c1 |
| 656 s | Cn1cc(C2c3nccn3CCCN2S(=O)(=O)c2cccc(C(F)(F)F)c2)cn1 (stereo not drawn) |
| 1240 s | Cc1cccc(-c2nc(Cn3nnc(-c4nc(-c5ccc6c(c5)OCO6)no4)c3C)c(C)o2)c1 |
| 732 s | CCc1nnc2cc(N3CCN(S(=O)(=O)c4ccc(C)cc4)CC3)cnn12 |
| 979 s | CC(C)NC(=O)c1ccc(OCC2CCCN(C(=O)Cc3ccc(F)cc3)C2)cc1 (stereo not drawn) |
| 856 s | CCC(C)NC(=O)Cc1cccn1-c1ccc(F)cc1 (stereo not drawn) |
| 601 s | COc1ccc(F)cc1S(=O)(=O)N1CCC2(CCC(CN3CCN(C)CC3)O2)CC1 (stereo not drawn) |
| 1060 s | COCc1nnc(NC(=O)c2ccccc2OCc2nc(-c3ccc(C)cc3)no2)s1 |
| 809 s | Cc1ccc(C(C)NC(=O)C2CCCN(c3cnc4nccnc4c3)C2)c(C)c1 (stereo not drawn) |
| 623 s | Cc1noc(C)c1Cc1c(C(=O)NCCn2c(C)cnc2C2CC2)noc1C |
| 1020 s | Cc1cc(C)nc(NS(=O)(=O)c2ccc(Nc3nc(-c4ccc(C)c(C)c4)cs3)cc2)n1 |

| RP-LC retention time | SMILES |
| --- | --- |
| 1020 s | Cc1nc(C)c(C(=O)Nc2nc(-c3ccc(OC(C)C)cc3)cs2)s1 |
| 955 s | Cc1ccc(-c2nnc(-c3nc(NCCc4c(C)noc4C)c4ccccc4n3)o2)cc1 |
| 898 s | Cc1ccccc1CNC(=O)C1(C)CCCN(C(=O)Nc2ccccc2)C1 (stereo not drawn) |
| 1230 s | Cc1ccc(-c2ccc(-n3nc(C)c(S(=O)(=O)N4CCCC(C)C4)c3C)nn2)cc1 (stereo not drawn) |
| 1300 s | Brc1ccc(-c2csc(Cc3nc(-c4ccc5c(c4)OCO5)no3)n2)cc1 |
| 591 s | COc1ccc(S(=O)(=O)N2CCCC(C(=O)NCc3ccncc3)C2)cc1OC (stereo not drawn) |
| 873 s | Cc1ccc(-c2cn3ccn(-c4ccc(F)cc4)c(=O)c3n2)c(C)c1 |
| 842 s | Cc1cc(NC(=O)CSc2cc(N3CCCC3)ncn2)ccc1Br |
| 916 s | O=C(Cn1cccc(-c2nc(-c3ccc(Cl)cc3)no2)c1=O)Nc1ccc2c(c1)OCO2 |
| 580 s | COCCN1CC2CN(C(=O)Nc3ccc4c(c3)OCCO4)CC(C1)O2 |
| 647 s | COc1cccc(-n2c(CN3CCN(c4ccccn4)CC3)nc3ccc([N+](=O)[O-])cc3c2=O)c1 |
| 765 s | Cc1nc(SCC(=O)O)n[nH]1 |
| 709 s | CC(=O)N1CCc2cc(C)c(S(=O)(=O)NC3CC3)cc21 |
| 616 s | Cc1ccccc1CN1CCC(CNS(=O)(=O)c2ccc3c(c2)CCCC(=O)N3)CC1 |
| 954 s | CC(C)CCNC(=O)C1CCCN(c2nc3ccsc3c(=O)n2Cc2ccc(F)cc2)C1 (stereo not drawn) |
| 916 s | CCOc1ccc(-n2ccn3cc(-c4ccc(F)cc4F)nc3c2=O)cc1 |
| 885 s | N#Cc1cnc2ccc(F)cc2c1N1CCC(C(=O)Nc2ccc(F)cc2)CC1 |
| 647 s | COc1cc(CCC(=O)N2CCN(c3cc(=O)n(C)c(=O)n3C)CC2)cc(OC)c1OC |
| 1100 s | CCCN1C(=O)c2cc(S(=O)(=O)Nc3ccc(F)cc3C)ccc2Oc2cccnc21 |
| 858 s | CCn1cc(C2=CCN(C(=O)NCc3ccc(OC)cc3)CC2)c2cccnc21 |
| 697 s | CC1CCN(c2ncnc3c2cnn3CC(=O)Nc2ccc(Cl)cc2)CC1 |
| 878 s | CCc1ccc(S(=O)(=O)NCC2CCN(C(=O)Nc3ccccc3OC)CC2)s1 |
